Measured values: publication PMC7488288, “Understanding and Improving the Membrane Permeability of VH032-Based PROTACs” (ACS Medicinal Chemistry Letters, 2020)
Where two headings read alike, the source gives them in different places.

Tests used:
VHL protein = test system: VHL protein; set-up: method as in PMID 28288108, PMID 30721025; conditions: cited from earlier work
in vitro = conditions: PAMPA
VHL = biological target: T1, VHL (Homo sapiens, UniProt P40337); assay: Fluorescence polarization (FP) competitive binding assay; conditions: 15 nM VCB protein, 10 nM FAM-labeled HIF-1α peptide JC9, read-out: Kd (FP-derived)
T1 construct: each well solution containing 15 nM VCB

[1] = for LPE: LPE = LogD(dec/w) – 1.06(ALogP) + 5.47
HL60 [2] = test system: HL60; set-up: method as in Chan et al. 2018 (ref1); conditions: cell proliferation, 48 h treatment; ref Chan et al. 2018 (ref1); cited from earlier work
MV4;11 [3] = conditions: cited from earlier work; for pEC50 (MV4;11): cell proliferation, 48 h treatment, ref Chan et al. 2018 (ref1)
MV4;11 [4] = assay: Cell proliferation assay, MV4;11; assay type: cell-based; conditions: Homo sapiens, 48 h treatment, read-out: pEC50 (MV4;11) (converted)
Text: (§1) IX. Cell proliferation assay
(§2) Cell proliferation data were collected as described in Chan et al. 2018 pg. 511 titled “Cell

HL60 [5] = assay: Cell proliferation assay, HL60; assay type: cell-based; conditions: for EC50: Homo sapiens, HL-60, 48 h treatment, read-out: pEC50 (HL60) (converted); for pEC50 (HL60): 48 h treatment
Text: as §1, §2

VHL E3 ubiquitin ligase = test system: VHL E3 ubiquitin ligase; set-up: method as in PMID 29018234; conditions: cited from earlier work

CC(=O)N[C@H](C(=O)N1C[C@H](O)C[C@H]1C(=O)NCc1ccc(-c2scnc2C)cc1)C(C)(C)SCCCCCCNC(=O)C[C@@H]1N=C(c2ccc(Cl)cc2)c2c(sc(C)c2C)-n2c(C)nnc21 [AT1]
fold lower binding affinity for the VHL protein compared to 8 (VHL protein): 5 fold

Cc1sc2c(c1C)C(c1ccc(Cl)cc1)=N[C@@H](CC(=O)OC(C)(C)C)c1nnc(C)n1-2 [Compound 1, reference compound]
Papp (in vitro; pH 7.4, PAMPA permeability (Pe)): ≥ 5 ×10⁻⁶ cm/s

Cc1ncsc1-c1ccc(CNC(=O)[C@@H]2C[C@@H](O)CN2C(=O)[C@@H](OC(=O)Cc2ccccc2)C(C)(C)C)cc1 [Compound 3]
Kd (VHL): 800 nM

Cc1ncsc1-c1ccc(CNC(=O)[C@@H]2C[C@@H](O)CN2C(=O)[C@@H](NC(=O)Cc2ccccc2)C(C)(C)C)cc1 [Compound 4]
Papp (in vitro; pH 7.4): ≥ 5 ×10⁻⁶ cm/s | Papp at 7 h (in vitro; pH 7.4): 8.6 ×10⁻⁶ cm/s | LPE [1]: 2.0

Cc1ncsc1-c1ccc(CNC(=O)[C@@H]2C[C@@H](O)CN2C(=O)[C@@H](OC(=O)CCOCCOCCOCCNC(=O)Cc2ccccc2)C(C)(C)C)cc1 [Compound 5]
Papp at 7 h (in vitro; pH 7.4): 0.3 ± 0.1 ×10⁻⁶ cm/s | ΔLPE (lower than 3) ([1]; comparator compound 3): 0.8 | fold more permeable than 6 (PAMPA) (pH 7.4): 1.5 fold

Cc1ncsc1-c1ccc(CNC(=O)[C@@H]2C[C@@H](O)CN2C(=O)[C@@H](NC(=O)CCOCCOCCOCCNC(=O)Cc2ccccc2)C(C)(C)C)cc1 [Compound 6]
Papp at 7 h (in vitro; pH 7.4): 0.2 ± 0.03 ×10⁻⁶ cm/s | ΔLPE (lower than 4) ([1]; comparator compound 4): 0.4

Cc1ncsc1-c1ccc(CNC(=O)[C@@H]2C[C@@H](O)CN2C(=O)[C@@H](NC(=O)COCCOCCNC(=O)C[C@@H]2N=C(c3ccc(Cl)cc3)c3c(sc(C)c3C)-n3c(C)nnc32)C(C)(C)C)cc1 [Compound 7]
Papp (in vitro; pH 7.4): > 0.6 ×10⁻⁶ cm/s | Papp at 15 h (in vitro; pH 7.4): 0.6 ×10⁻⁶ cm/s | LPE [1]: 0.4 | pEC50 (HL60) (HL60 [2]): 5.84 | pEC50 (MV4;11) (MV4;11 [3]): 6.75 | fold more permeable than 8 (PAMPA) (pH 7.4): 20 fold | fold more permeable than 9 (PAMPA) (pH 7.4): 100 fold | fold more permeable than 15 (PAMPA) (pH 7.4): 120 fold | fold more permeable than 17 and 14 (PAMPA) (pH 7.4): 300 fold

Cc1ncsc1-c1ccc(CNC(=O)[C@@H]2C[C@@H](O)CN2C(=O)[C@@H](NC(=O)COCCOCCOCCNC(=O)C[C@@H]2N=C(c3ccc(Cl)cc3)c3c(sc(C)c3C)-n3c(C)nnc32)C(C)(C)C)cc1 [Compound 8]
Papp (in vitro; pH 7.4): > 0.6 ×10⁻⁶ cm/s | Papp at 15 h (in vitro; pH 7.4): 0.03 ± 0.01 ×10⁻⁶ cm/s | pEC50 (HL60) (HL60 [2]): 6.8 | activity relative to 7 (cellular antiproliferation) (MV4;11 [3]; SI Table 2, MV4;11 and HL60): one log unit | pEC50 (MV4;11) (MV4;11 [3]): 7.57 | fold difference in permeability vs 16 (PAMPA) (pH 7.4): 10 fold | fold less permeable than 7 (PAMPA) (pH 7.4): 20 fold

Cc1ncsc1-c1ccc(CNC(=O)[C@@H]2C[C@@H](O)CN2C(=O)[C@@H](NC(=O)[C@H](Cc2ccccc2)NC(=O)COCCOCCOCCNC(=O)C[C@@H]2N=C(c3ccc(Cl)cc3)c3c(sc(C)c3C)-n3c(C)nnc32)C(C)(C)C)cc1 [Compound 9]
Papp at 15 h (in vitro; pH 7.4): 0.006 ×10⁻⁶ cm/s | LPE [1]: -1.1 | decrease in LPE vs 8 ([1]; addition of a Phe residue to 8): 1.2 unit | EC50 (MV4;11 [4]): 457 nM | EC50 (HL60 [5]): 4170 nM | fold decrease in permeability vs 8 (PAMPA) (pH 7.4): 5 fold

CC(=O)N1c2ccc(-c3ccc(C(=O)NCCOCCOCC(=O)N[C@H](C(=O)N4C[C@H](O)C[C@H]4C(=O)NCc4ccc(-c5scnc5C)cc4)C(C)(C)C)cc3)cc2[C@H](Nc2ccc(Cl)cc2)C[C@@H]1C [Compound 10]
Papp at 15 h (in vitro; pH 7.4): 0.3 ± 0.1 ×10⁻⁶ cm/s | LPE [1]: -0.1 | pEC50 (HL60) (HL60 [2]): 6.17 | pEC50 (MV4;11) (MV4;11 [3]): 6.24 | fold difference in permeability vs 11 (PAMPA) (pH 7.4): 2 fold

CC(=O)N1c2ccc(-c3ccc(C(=O)NCCOCCOCCOCCOCC(=O)N[C@H](C(=O)N4C[C@H](O)C[C@H]4C(=O)NCc4ccc(-c5scnc5C)cc4)C(C)(C)C)cc3)cc2[C@H](Nc2ccc(Cl)cc2)C[C@@H]1C [Compound 11]
Papp at 15 h (in vitro; pH 7.4): 0.16 ± 0.14 ×10⁻⁶ cm/s | LPE [1]: 0.2 | pEC50 (HL60) (HL60 [2]): 6.37 | pEC50 (MV4;11) (MV4;11 [3]): 7.08

Cc1ncsc1-c1ccc(CNC(=O)[C@@H]2C[C@@H](O)CN2C(=O)[C@@H](NC(=O)COCCOCCOCCOCC(=O)N[C@H](C(=O)N2C[C@H](O)C[C@H]2C(=O)NCc2ccc(-c3scnc3C)cc2)C(C)(C)C)C(C)(C)C)cc1 [Compound 12]
Papp (in vitro; pH 7.4): 0.009 ×10⁻⁶ cm/s | LPE ([1]; listed as CM9 (12)): 0.8

Cc1ncsc1-c1ccc(CNC(=O)[C@@H]2C[C@@H](O)CN2C(=O)[C@@H](NC(=O)COCCOCCOCCOCCOCCOCC(=O)N[C@H](C(=O)N2C[C@H](O)C[C@H]2C(=O)NCc2ccc(-c3scnc3C)cc2)C(C)(C)C)C(C)(C)C)cc1 [Compound 13]
Papp (in vitro; pH 7.4): 0.005 ×10⁻⁶ cm/s | LPE ([1]; listed as CM11 (13)): 0.6 | activity relative to 12 (cellular protein degradation assay) (VHL E3 ubiquitin ligase): two log units | permeability relative to 12 (PAMPA): reduced by half

Cc1ncsc1-c1ccc(CNC(=O)[C@@H]2C[C@H](O)CN2C(=O)[C@@H](NC(=O)COCCOCCOCCOCCOCCOCC(=O)N[C@H](C(=O)N2C[C@@H](O)C[C@H]2C(=O)NCc2ccc(-c3scnc3C)cc2)C(C)(C)C)C(C)(C)C)cc1 [Compound 14]
Papp at 15 h (in vitro; pH 7.4): 0.002 ± 0.0002 ×10⁻⁶ cm/s | LPE ([1]; listed as CMP98 (14)): 1.7

CC(=O)N[C@H](C(=O)N1C[C@H](O)C[C@H]1C(=O)NCc1ccc(-c2scnc2C)cc1)C(C)(C)SCCOCCNC(=O)C[C@@H]1N=C(c2ccc(Cl)cc2)c2c(sc(C)c2C)-n2c(C)nnc21 [Compound 15]
Papp at 15 h (in vitro; pH 7.4): 0.005 ± 0.003 ×10⁻⁶ cm/s | LPE [1]: −2.3 | EC50 (MV4;11 [4]): 7240 nM | EC50 (HL60 [5]): 12600 nM

CC(=O)N[C@H](C(=O)N1C[C@H](O)C[C@H]1C(=O)NCc1ccc(-c2scnc2C)cc1)C(C)(C)SCCOCCOCCNC(=O)C[C@@H]1N=C(c2ccc(Cl)cc2)c2c(sc(C)c2C)-n2c(C)nnc21 [Compound 16]
Papp at 15 h (in vitro; pH 7.4): 0.003 ×10⁻⁶ cm/s | LPE [1]: −2.6 | EC50 (MV4;11 [4]): 692 nM | pEC50 (HL60) (HL60 [5]): BLQ | permeability relative to 15 (PAMPA): reduced by half | PAMPA permeability (Pe) (pH 7.4): 0.003 ± 8.4x10-5

CC(=O)N[C@H](C(=O)N1C[C@H](O)C[C@H]1C(=O)NCc1ccc(-c2scnc2C)cc1)C(C)(C)SCCCCNC(=O)C[C@@H]1N=C(c2ccc(Cl)cc2)c2c(sc(C)c2C)-n2c(C)nnc21 [Compound 17]
Papp at 15 h (in vitro; pH 7.4): 0.002 ×10⁻⁶ cm/s | LPE [1]: -3.1 | LPE lower than 15 (ΔLPE) ([1]; alkyl-linked 17 vs PEG counterpart 15): 0.8 | EC50 (MV4;11 [4]): 617 nM | pEC50 (HL60) (HL60 [5]): BLQ | fold less permeable than 15 (PAMPA) (pH 7.4): 2.5 fold
